For data set [1] the following is noted: amide bond, 2 steps.
Data set [2] concerns sodium-deficient Rhesus monkeys. As to the kind of experiment: intravenous evaluation of renin inhibitors in conscious sodium-deficient Rhesus monkeys (blood pressure lowering). As to conditions: i.v. bolus. It counts as in vivo. From the text: The following methods were used for in vivo evaluation of the renin inhibitors of Formula I: Intravenous evaluation of renin inhibitors in concious sodium-deficient Rhesus monkeys: Rhesus monkeys, male and female, weighing 2.6-4.5 Kg, were surgically prepared with chronic arterial and venous catheters and vascular access ports for direct monitoring of mean arterial pressure (MAP) and heart rate (HR). The animals were maintained on a low sodium diet (1.2 mmol Na/day) plus fruit for a week, and administered LASIX (furosemide) at 2.5 mg/Kg, intramuscularly the evening prior to the experiment. The animals had been trained to sit quietly in the chairs with water ad libium for the duration of the experiment. The inhibitors were administered by bolus injection using 0.5% acetic acid-5% dextrose in water as the vehicle (0.4 ml/Kg), and MAP and HR were measured. Blood samples were withdrawn at different time intervals beginning at the nadir of hypotensive response. PRA was determined as described above. […] A projected ED50 dose for each inhibitor was calculated using the following formula: ED50 (Test Inhibitor, umoles/Kg)=ED50 (SCRIP) X [IC50 (Test Inhibitor)/IC50 (SCRIP)], where the IC50 values were determined against human plasma renin. […] Percent inhibition of monkey PRA, changes in MAP and HR were calculated and plotted against time. […]

Like-named read-outs stand apart in the source and are kept apart here. Where a SMILES comes first, the peptide text is derived from it. [ ]: non-standard residue; d: D form. The star is where a group is joined. Sta = CC(C)C[C@H](N)[C@@H](O)CC(=O)O; Isovaleryl = CC(C)CC(=O)*

Compound `O=C(N[C@H]1CSCCC[C@H](CN2CCOCC2)OC(=O)[C@H](O)[C@H](CC2CCCCC2)NC1=O)OCc1ccccc1` yielded a ring closure, yield of all isomers in data set [1] (from N[C@@H](CC1CCCCC1)[C@@H](O)C(=O)O[C@H](CCCSC[C@H](NC(=O)OCc1ccccc1)C(=O)O)CN1CCOCC1) of 38%. The compound `CCCCC1CNC(=O)CC[C@H](NC(=O)OCc2ccccc2)C(=O)N[C@@H](CC2CCCCC2)[C@@H](O)C(=O)O1` (stereo partly shown) returned a ring closure, yield of all isomers in data set [1] (from CCCCC(CNC(=O)CC[C@H](NC(=O)OCc1ccccc1)C(=O)OC(C)(C)C)OC(=O)[C@@H]1OC(C)(C)N(C(=O)OC(C)(C)C)[C@H]1CC1CCCCC1, EDC/HOBt) of 54%.

For `O=C1CC[C@H](NC(=O)OCc2ccccc2)C(=O)N[C@@H](CC2CCCCC2)[C@@H](O)C(=O)OC(CN2CCOCC2)CN1` (stereo partly shown), the ring closure, yield of all isomers in data set [1] (from CC(C)(C)OC(=O)[C@H](CCC(=O)NCC(CN1CCOCC1)OC(=O)[C@@H]1OC(C)(C)N(C(=O)OC(C)(C)C)[C@H]1CC1CCCCC1)NC(=O)OCc1ccccc1) worked out at 61%. In the case of `CC(C)CC(=O)N[C@@H](Cc1c[nH]cn1)C(=O)N1CCC[C@H]1C(=O)N[C@@H](Cc1ccccc1)C(=O)N[C@@H](Cc1c[nH]cn1)C(=O)N[C@@H](CC(C)C)[C@@H](O)CC(=O)N[C@@H](CC(C)C)C(=O)N[C@@H](Cc1ccccc1)C(N)=O` [SCRIP, Iva-His-Pro-Phe-His-Sta-Leu-Phe-NH2] (Isovaleryl-HPFH[Sta]LF-NH2), in data set [2], the “ED50 (i.v. dose required to lower blood pressure by 50% of the maximal response)” value came out at 0.039 µmol/kg.

Regarding `O=C1CC[C@H](NC(=O)OCc2ccccc2)C(=O)N[C@@H](CC2CCCCC2)[C@@H](O)C(=O)OC(CN2CCOCC2)CO1` (stereo partly shown), in data set [1] (from CC(C)(C)OC(=O)[C@H](CCC(=O)OCC(CN1CCOCC1)OC(=O)[C@@H]1OC(C)(C)N(C(=O)OC(C)(C)C)[C@H]1CC1CCCCC1)NC(=O)OCc1ccccc1, THF), the ring closure, yield of all isomers amounted to 32%. `CC(C)(C)OC(=O)N[C@H]1CNC(=O)CCCCOC(=O)[C@H](O)[C@H](CC2CCCCC2)NC1=O`: in data set [1] (from CC(C)(C)OC(=O)N[C@@H](CNC(=O)OCc1ccccc1)C(=O)N[C@@H](CC1CCCCC1)[C@@H](O)C(=O)OCCCCC(=O)OCc1ccccc1, DPPA, triethylamine), the ring closure, yield of all isomers came out at 27%. In data set [1] (from CC(CC(=O)NCCOC(=O)[C@@H]1OC(C)(C)N(C(=O)OC(C)(C)C)[C@H]1CC1CCCCC1)[C@H](NC(=O)OCc1ccccc1)C(=O)OCC[Si](C)(C)C), `CC1CC(=O)NCCOC(=O)[C@H](O)[C@H](CC2CCCCC2)NC(=O)[C@H]1NC(=O)OCc1ccccc1` (stereo partly shown) showed a ring closure, yield of all isomers of 62%.

As to `CC(C)CC1CNC(=O)CC[C@H](NC(=O)OCc2ccccc2)C(=O)N[C@@H](CC2CCCCC2)[C@@H](O)C(=O)O1` (stereo partly shown), the ring closure, yield of all isomers in data set [1] (from CC(C)CC(CNC(=O)CC[C@H](NC(=O)OCc1ccccc1)C(=O)OC(C)(C)C)OC(=O)[C@@H]1OC(C)(C)N(C(=O)OC(C)(C)C)[C@H]1CC1CCCCC1, THF) was determined as 51%.

Compound `O=C(N[C@H]1CSCCCCOC(=O)[C@H](O)[C@H](CC2CCCCC2)NC1=O)OCc1ccccc1` yielded a ring closure, yield of all isomers in data set [1] (from N[C@@H](CC1CCCCC1)[C@@H](O)C(=O)OCCCCSC[C@H](NC(=O)OCc1ccccc1)C(=O)O) of 34%. As for `CC(C)(C)OC(=O)N[C@H]1CCC(=O)NCCCC2(OCCO2)[C@H](O)[C@H](CC2CCCCC2)NC1=O`, the ring closure, yield of all isomers in data set [1] (from CC(C)(C)OC(=O)N[C@@H](CCC(=O)OCc1ccccc1)C(=O)N[C@@H](CC1CCCCC1)[C@@H](O)C1(CCCN=[N+]=[N-])OCCO1, DPPA, triethylamine) is 30%.

The record behind these values is patent publication US5254682A, “Cyclic renin inhibitors containing 3(S)-amino-4-cyclohexyl-2(R)-hydroxy-butanoic acid or 4-cyclo-hexyl-(2R, 3S)-dihydroxybutanoic acid or related analogs” (Merck & Co., Inc., priority 1991, dated 1993).
